Results: publication PMC11369887 (RSC Advances, 2024)
Like-named read-outs stand apart in the source and are kept apart here.

How the values were obtained:
[1] = system: leukemia (L-SR) cell line; assay: MTT cytotoxicity assay, L-SR; details: Homo sapiens, 48 h, read-out: Cytotoxicity IC50 L-SR
Description: (§2) The newly synthesized compounds were evaluated for their in vitro growth inhibition of three human tumor cell lines representing different tumor types, namely, breast adenocarcinoma (MCF-7), liver hepatocellular carcinoma (Hep3B) and leukemia-SR. […] The breast tumor cell line (MCF-7), hepatic tumor cell line (Hep3B) and leukemia-SR cell line were obtained from American Type Culture Collection. The cells were cultured using Dulbecco's modified Eagle's medium (DMEM) (Invitrogen/Life Technologies) supplemented with 10% fetal bovine serum (FBS) (Hyclone), 10 μg mL^−1 of insulin (Sigma), and 1% penicillin–streptomycin. […] For 24 hours before to the MTT experiment, plate cells (densities of 1.2–1.8 × 10 000 cells per well) were layered in a 96-well plate containing 100 μL of the tested chemical per well and 100 μL of full growth media.
(§3) The culture medium was transferred to a centrifuge tube. […] Then 2.0 to 3.0 mL of Trypsin EDTA solution was added to the flask, and the cells were observed using an inverted microscope until the cell layer became dispersed (usually within 5–15 min). After that, 6.0 to 8.0 mL of complete growth medium was added and the cells were aspirated by gently pipetting. The cell suspension was transferred to the centrifuge tube with the medium and cells from step 1 and centrifuged at approximately 125 g for 5–10 min. The supernatant was discarded. The cell pellet was re-suspended in a fresh growth medium. Appropriate aliquots of the cell suspension were added to new culture vessels.
(§4) For the best results, the cells in the log phase of growth should be employed and the final cell number should not exceed 10^6 cells per cm^2. Each test should include a blank containing a complete medium without cells. Cultures from the incubator were transferred into a laminar flow hood or other sterile work area. […] Reconstituted MTT was added in an amount equal to 10% of the culture medium volume. Cultures were returned to the incubator for 2–4 h depending on the cell type and maximum cell density. An incubation period of 2 h is generally adequate but may be lengthened for low cell densities or cells with lower metabolic activity. The incubation times should be consistent when making comparisons. […] Occasionally, especially in dense cultures, pipetting up and down may be required to completely dissolve the MTT formazan crystals. The absorbance was spectrophotometrically measured at a wavelength of 570 nm. The background absorbance of multiwell plates was measured at 690 nm and subtracted from the 450 nm measurement. Tests performed in multiwell plates might be read using an appropriate type of plate reader or the contents of individual wells might be transferred to appropriate size cuvettes for spectrophotometric measurement.

[2] = biological target: T1, human DNA topoisomerase II beta (Topo2β) (Homo sapiens, UniProt Q02880); assay: Topo2β polymerase inhibition assay (ELISA), Hep3B; assay type: cell-based; parameters: concentration or dose not given beside the values; details: against Hep3B cell line
Description: (§1) This assay was employed to predict the inhibitory effects of novel compounds on Topo2β. […] The melting points were determined using a Stuart apparatus, and the values given are uncorrected. IR spectra were recorded using a Shimadzu IR 4000s spectrophotometer (KBr, cm^−1) at the College of Pharmaceutical Sciences and Drug Manufacturing, Misr University for Science and Technology, Egypt. ^1H NMR spectra were recorded using a Bruker 400 MHz (Bruker Corp., Billerica, MA, USA) spectrophotometer, Faculty of Pharmacy, Cairo University, Cairo, Egypt and the Centre of Drug Discovery Research & Development, Faculty of Pharmacy, Ain shams University, and a Jeol 500 MHz spectrophotometer at the National Research Center. Chemical shifts were recorded in ppm on a δ scale, coupling constants (J) were given in Hz and peak multiplicities are designed as follows: s, singlet; d, doublet; t, triplet; m, multiplet. ^13C NMR spectra were recorded using a Bruker 100 MHz spectrophotometer, Faculty of Pharmacy, Cairo University and the Centre of Drug Discovery Research & Development, Faculty of Pharmacy, Ain shams University, and a Jeol 500 MHz spectrophotometer at the National Research Center. Chemical shifts were recorded in ppm on a δ scale. Microanalyses for C, H, and N were carried out at the Regional Center for Mycology and Biotechnology, Faculty of Pharmacy, Al-Azhar University. C, H, and N analysis values were accepted within the range of ± 0.4 of the calculated percentages. […] The used eluting system was methanol : hexane with a ratio of 9.5/0.5 respectively. Scientific microwave MAS-II was used under 300 W microwave irradiation, operating at 80 °C. The evaluation of the cytotoxic activity was performed at VACSERA, Giza, Egypt, using MCF-7, Hep3B and leukemia SR cell lines. Enzyme assay, cell cycle analysis, apoptosis and caspase-3 assay were carried out at VACSERA, Giza, Egypt using an SEB870Hu 96 Tests Enzyme-linked Immunosorbent Assay Kit for Topoisomerase II Beta.
This assay employs a quantitative sandwich enzyme immunoassay technique. […] Antibody specific for Topo2β was pre-coated onto a microplate. Standards and samples were pipetted into the wells and any Topo2β present was bound by the immobilized antibody. After removing any unbound substances, a biotin-conjugated antibody specific for Topo2β was added to the wells. After washing, avidin-conjugated Horseradish Peroxidase (HP) was added to the wells. Following washing to remove any unbound avidin–enzyme reagent, a substrate solution was added to the wells and color develops in proportion to the amount of Topo2β bound in the initial step. The color development was stopped, and the intensity of the color was measured. […] The sensitivity of this assay or lower limit of detection (LLD) is defined as the lowest protein concentration that could be differentiated from zero. The mean OD value of 20 replicates of the zero standard was determined and added to their three standard deviations.[64]

in vitro [3] = details: human, THLE2 normal liver cells
Description: (§5) The following normal cell lines were selected: normal breast MCF-10a, normal liver THLE2 and normal lymphocyte PCS-800-011. […] Moreover, the toxic effect of representative target compounds was evaluated on normal breast (MCF10a), normal liver (THLE2) and normal lymphocyte (PCS-800-011) cell lines using an MTT assay. […] The cells were cultured using Dulbecco's modified Eagle's medium (DMEM) (Invitrogen/Life Technologies) supplemented with 10% fetal bovine serum (FBS) (Hyclone), 10 μg mL^−1 of insulin (Sigma), and 1% penicillin–streptomycin. All chemicals and reagents were purchased from Sigma-Aldrich or Invitrogen. For 24 hours before to the MTT experiment, plate cells (densities of 1.2–1.8 × 10 000 cells per well) were layered in a 96-well plate containing 100 μL of the tested chemical per well and 100 μL of full growth media.
as §3, §4

in vitro [4] = details: human, PCS-800-011 normal lymphocyte cells
Description: as §5, §3, §4

[5] = system: human breast cancer (MCF-7) cell line; assay: MTT cytotoxicity assay, MCF-7; details: Homo sapiens, MCF7, 48 h, read-out: Cytotoxicity IC50 MCF-7
Description: as §2, §3, §4

[6] = system: human liver cancer (Hep3B) cell line; assay: MTT cytotoxicity assay, Hep3B; details: Homo sapiens, Hep3B
Description: as §2, §3, §4

[7] = biological target: T1, human DNA topoisomerase II beta (Topo2β); assay: Topo2β polymerase inhibition assay (ELISA), L-SR; assay type: cell-based; parameters: endogenous in cells; host or cells: MCF-7 (A4), Hep3B (A5), L-SR (A6) human cancer cell lines; details: against L-SR cell line
Description: as §1
This assay employs a quantitative sandwich enzyme immunoassay technique. […] Antibody specific for Topo2β was pre-coated onto a microplate. Standards and samples were pipetted into the wells and any Topo2β present was bound by the immobilized antibody. After removing any unbound substances, a biotin-conjugated antibody specific for Topo2β was added to the wells. After washing, avidin-conjugated Horseradish Peroxidase (HP) was added to the wells. […] The color development was stopped, and the intensity of the color was measured. […] The mean OD value of 20 replicates of the zero standard was determined and added to their three standard deviations.[64]

in vitro [8] = details: human, MCF-10a normal breast cells
Description: as §5, §3
For the best results, the cells in the log phase of growth should be employed and the final cell number should not exceed 10^6 cells per cm^2. […] The absorbance was spectrophotometrically measured at a wavelength of 570 nm. The background absorbance of multiwell plates was measured at 690 nm and subtracted from the 450 nm measurement. Tests performed in multiwell plates might be read using an appropriate type of plate reader or the contents of individual wells might be transferred to appropriate size cuvettes for spectrophotometric measurement.

Hep3B cells [9] = assay: Annexin V-FITC/propidium iodide apoptosis assay; details: for Total %: apoptosis and necrosis total; for Total % / Early apoptosis % / Late apoptosis % / Necrosis %: treated at IC50; for percentage of apoptotic cells (summation of Q2 and Q3): early plus late apoptosis
Description: An Annexin-V-FITC apoptosis assay was used to determine apoptosis and necrosis. The cells were incubated with Annexin-V-FITC, centrifuged and then resuspended in 500 μL of 1× binding buffer. Then 5 μL of Annexin-V-FITC and 5 μL of propidium iodide (PI) were added, and the cells were then trypsinized and washed once with serum-containing media before incubation with Annexin-V-FITC at room temperature for 5 min in the dark. A FACSort Calibur flow cytometer (Becton Dickinson Biosciences) was used to analyze apoptosis.[56,57]

Hep3B cells [10] = assay: Cell cycle analysis by propidium iodide staining, flow cytometry; assay type: cell-based, human; details: Hep3B cells treated at IC50
Description: An apoptosis study was performed at the Cell Culture Unit, VACSERA, Cairo, Egypt. […] The treated cells were washed twice with ice-cold phosphate-buffered saline (PBS), centrifuged and then fixed in ice-cold 70% (v/v) ethanol to prevent clustering of cells during fixation. […] Then 3 mL of PBS was added, and the cells were centrifuged to remove the supernatant. The cells were analyzed by flow cytometry using a FACSort Calibur (Becton Dickinson Biosciences, CA, USA). Finally, the Cell Quest software was used to determine the cell cycle distribution.[65,66]

[11] = biological target: T1, human DNA topoisomerase II beta (Topo2β); assay: Topo2β polymerase inhibition assay (ELISA), MCF-7; assay type: cell-based; details: against MCF-7 cell line
Description: as §1, with “Enzyme assay, cell cycle analysis, apoptosis and caspase-3 assay were carried out at VACSERA, Giza, Egypt using an SEB870Hu 96 Tests Enzyme-linked Immunosorbent Assay Kit for Topoisomerase II Beta.” left out
This assay employs a quantitative sandwich enzyme immunoassay technique. […] The color development was stopped, and the intensity of the color was measured. […] The mean OD value of 20 replicates of the zero standard was determined and added to their three standard deviations.[64]

active caspase-3 = assay: Caspase-3 enzyme assay (ELISA) in Hep3B; assay type: cell-based, human; details: Hep3B cells
Description: Caspases are crucial mediators of apoptosis. Among them, caspase-3 is considered as a key effector caspase in inducing cell apoptosis and serves as a marker of programmed cell death.[58] Compounds 3c and 5 were tested for their effect on caspase-3 levels in the most sensitive liver cancer cell line Hep3B.
Caspase-3 is one of the crucial mediators of programmed cell death (apoptosis) as it is essential for the formation of apoptotic bodies.[67–70] Active caspase-3 level was measured in pg ml^−1 protein using an Invitrogen ELISA kit (catalog KHO1091). The following procedures were performed. First, 100 μL of the standard diluent buffer was added to the zero standard wells. Then, 100 μL of standards and controls or diluted samples were added to the appropriate microtitre wells. Cover wells were covered and incubated for 2 h at room temperature. The solution was decanted from wells. Then 100 μL of active caspase-3 detection antibody solution was pipetted into each well. The plate was covered and incubated for 1 h at room temperature. After that, 100 μL of Anti-Rabbit IgG HP working solution was added to each well. The wells were covered with a plate cover and incubated for 30 min at room temperature. Then, 100 μL of stabilized chromogen was added to each well. The liquid in the wells will begin to turn blue, and the wells were incubated for 30 min at room temperature. A stop solution was added to each well. The solution in the wells should change from blue to yellow. The plate was read within 2 h after adding the stop solution. Curve fitting software was used to generate the standard curve.

[12] = system: human liver cancer (Hep3B) cell line
Description: as §2, §3, §4

[13] = system: leukemia (L-SR) cell line
Description: as §2, §3, §4

[14] = system: human breast cancer (MCF-7) cell line
Description: as §2, §3, §4

[15] = 48 h, read-out: Cytotoxicity IC50 Hep3B

T1 sequence (Q02880 whole entry): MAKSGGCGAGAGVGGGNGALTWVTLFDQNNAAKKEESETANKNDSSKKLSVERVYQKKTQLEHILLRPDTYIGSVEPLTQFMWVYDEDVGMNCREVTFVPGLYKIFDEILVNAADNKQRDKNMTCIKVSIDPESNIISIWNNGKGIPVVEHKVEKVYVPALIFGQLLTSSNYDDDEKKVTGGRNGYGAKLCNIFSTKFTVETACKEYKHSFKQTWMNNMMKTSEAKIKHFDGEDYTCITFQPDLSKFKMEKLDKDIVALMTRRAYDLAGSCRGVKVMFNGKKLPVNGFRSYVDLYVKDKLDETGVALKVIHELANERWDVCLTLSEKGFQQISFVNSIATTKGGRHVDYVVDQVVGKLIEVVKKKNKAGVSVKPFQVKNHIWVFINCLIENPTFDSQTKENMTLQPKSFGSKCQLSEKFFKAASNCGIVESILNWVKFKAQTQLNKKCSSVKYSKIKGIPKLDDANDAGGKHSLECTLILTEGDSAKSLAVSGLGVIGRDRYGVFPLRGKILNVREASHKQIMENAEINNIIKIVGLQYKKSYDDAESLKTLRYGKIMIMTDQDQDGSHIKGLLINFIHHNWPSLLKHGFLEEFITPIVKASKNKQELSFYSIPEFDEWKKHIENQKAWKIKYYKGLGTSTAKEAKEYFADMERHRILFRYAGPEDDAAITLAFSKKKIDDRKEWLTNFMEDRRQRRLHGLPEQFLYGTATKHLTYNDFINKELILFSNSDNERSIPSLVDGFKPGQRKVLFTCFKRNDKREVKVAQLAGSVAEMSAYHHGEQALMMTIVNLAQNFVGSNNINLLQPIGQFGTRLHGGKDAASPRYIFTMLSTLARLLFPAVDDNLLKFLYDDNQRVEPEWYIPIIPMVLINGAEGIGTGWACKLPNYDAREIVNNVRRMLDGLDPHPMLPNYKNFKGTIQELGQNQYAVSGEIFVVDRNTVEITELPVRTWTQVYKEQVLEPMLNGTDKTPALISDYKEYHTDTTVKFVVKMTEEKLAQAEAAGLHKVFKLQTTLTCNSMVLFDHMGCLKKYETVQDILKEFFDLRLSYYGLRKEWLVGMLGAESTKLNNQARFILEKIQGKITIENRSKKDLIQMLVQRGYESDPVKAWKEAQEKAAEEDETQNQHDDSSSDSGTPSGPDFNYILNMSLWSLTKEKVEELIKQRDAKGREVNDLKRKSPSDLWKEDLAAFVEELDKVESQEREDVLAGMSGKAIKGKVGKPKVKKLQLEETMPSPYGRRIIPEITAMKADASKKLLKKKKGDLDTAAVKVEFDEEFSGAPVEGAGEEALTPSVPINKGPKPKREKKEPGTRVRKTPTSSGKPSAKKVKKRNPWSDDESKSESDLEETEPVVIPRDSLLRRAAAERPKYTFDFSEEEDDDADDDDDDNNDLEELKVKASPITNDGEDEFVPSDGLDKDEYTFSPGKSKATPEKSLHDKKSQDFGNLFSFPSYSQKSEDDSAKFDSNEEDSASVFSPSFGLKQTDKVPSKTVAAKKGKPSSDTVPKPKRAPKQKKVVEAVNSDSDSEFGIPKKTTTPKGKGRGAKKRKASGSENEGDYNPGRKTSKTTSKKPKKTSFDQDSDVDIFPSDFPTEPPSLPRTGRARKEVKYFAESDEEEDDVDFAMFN

Compound: CC1COc2c(N3CCN(C)CC3)c(F)cc3c(=O)c(C(=O)N4NC(=O)CC4=N)cn1c23 (centres unmarked) [Compound 7, 9-Fluoro-6-((5-imino-3-oxopyrazolidine-1-yl)carbonyl)-3-methyl-10-(4-methylpiperazin-1-yl)-2,3-dihydro-7H-[1,4]oxazino[2,3,4-ij]quinolin-7-one]
- IC50 [1]: 12.1 ± 0.73 µM
- Topo2β% inhibition [2]: 71.92%
- IC50 at 48 h (in vitro [3]): 68.5 ± 3.86 µM
- IC50 at 48 h (in vitro [4]): 32.1 ± 1.68 µM
- IC50 [5]: 4.37 ± 0.2 µM
- melting point: 101 to 103 °C
- IC50 [6, 15]: 6.99 ± 0.32 µM

Compound: COc1cc([C@@H]2c3cc4c(cc3[C@@H](O[C@@H]3O[C@@H]5CO[C@@H](C)O[C@H]5[C@H](O)[C@H]3O)[C@H]3COC(=O)[C@H]23)OCO4)cc(OC)c1O [Etoposide, reference compound]
- IC50 [1]: 3.38 ± 0.13 µM
- Topo2β% inhibition [2]: 73.22%
- Topo2β% inhibition [7]: 69.85%
- IC50 at 48 h (in vitro [3]): 35.2 ± 2.19 µM
- IC50 at 48 h (in vitro [4]): 37.1 ± 1.79 µM
- IC50 at 48 h (in vitro [8]): 23.9 ± 1.55 µM
- IC50 [5]: 16.3 ± 0.72 µM
- Total % (Hep3B cells [9]): 27.09%
- Early apoptosis % (Hep3B cells [9]): 3.41%
- Late apoptosis % (Hep3B cells [9]): 9.37%
- Necrosis % (Hep3B cells [9]): 14.31%
- DNA content %G0–G1 (Hep3B cells [10]): 36.14%
- DNA content %G2/M (Hep3B cells [10]): 37.62%
- DNA content %S (Hep3B cells [10]): 26.24%
- Topo2β% inhibition [11]: 63.18%
- Caspase-3 Conc. (active caspase-3): 460 ± 11.3 pg/mL
- IC50 [6]: 21.9 µM
- IC50 [6, 15]: 21.9 ± 0.72 µM

Compound: 9-Fluoro-3-methyl-6-((3-methyl-5-oxo-4,5-dihydro-1H-pyrazol-1-yl)carbonyl)-10-(4-methylpiperazin-1-yl)-2,3-dihydro-7H-[1,4]oxazino[2,3,4-ij]quinolin-7-one [Compound 6]
- IC50 [12]: 13.1 ± 0.61 µM
- IC50 [13]: 28.9 ± 1.75 µM
- IC50 [14]: 40.6 ± 1.88 µM

Compound: CCOC(=O)CC(C)=NNC(=O)c1cn2c3c(c(N4CCN(C)CC4)c(F)cc3c1=O)OCC2C (centres unmarked) [Compound 5, Ethyl 3-(2-(9-fluoro-3-methyl-10-(4-methylpiperazin-1-yl)-7-oxo-2,3-dihydro-7H-[1,4]oxazino[2,3,4-ij]quinoline-6-carbonyl)hydrazineylidene)butanoate]
- IC50 [1]: 0.96 ± 0.06 µM
- Topo2β% inhibition [2]: 83.73%
- Topo2β% inhibition [7]: 80.29%
- IC50 at 48 h (in vitro [3]): 40.6 ± 2.28 µM
- IC50 at 48 h (in vitro [4]): 19.7 ± 1.03 µM
- IC50 at 48 h (in vitro [8]): 30.4 ± 1.66 µM
- IC50 [5]: 1.4 ± 0.06 µM
- Total % (Hep3B cells [9]): 38.11%
- percentage of apoptotic cells (summation of Q2 and Q3) (Hep3B cells [9]): 32.21%
- Early apoptosis % (Hep3B cells [9]): 9.54%
- Late apoptosis % (Hep3B cells [9]): 22.67%
- Necrosis % (Hep3B cells [9]): 5.9%
- DNA content %G0–G1 (Hep3B cells [10]): 38.49%
- DNA content %G2/M (Hep3B cells [10]): 22.42%
- DNA content %S (Hep3B cells [10]): 39.09%
- Topo2β% inhibition [11]: 78.30%
- Caspase-3 Conc. (active caspase-3): 375.8 ± 16.6 pg/mL
- IC50 [6, 15]: 3.77 ± 0.17 µM

Compound: COc1ccc(C=NNC(=O)c2cn3c4c(c(N5CCN(C)CC5)c(F)cc4c2=O)OCC3C)cc1 (centres unmarked) [Compound 3c, 9-Fluoro-3-methyl-10-(4-methylpiperazin-1-yl)-N′-(4-methoxybenzylidene)-7-oxo-2,3-dihydro-7H-[1,4]oxazino[2,3,4-ij]quinoline-6-carbohydrazide]
- IC50 [1]: 22.4 ± 1.34 µM
- Topo2β% inhibition [2]: 81.33%
- IC50 at 48 h (in vitro [3]): 20 ± 0.76 µM
- IC50 [5]: 40.6 ± 3.17 µM
- Total % (Hep3B cells [9]): 32.91%
- percentage of apoptotic cells (summation of Q2 and Q3) (Hep3B cells [9]): 25.87%
- Early apoptosis % (Hep3B cells [9]): 11.54%
- Late apoptosis % (Hep3B cells [9]): 14.33%
- Necrosis % (Hep3B cells [9]): 7.04%
- DNA content %G0–G1 (Hep3B cells [10]): 43.53%
- DNA content %G2/M (Hep3B cells [10]): 18.91%
- DNA content %S (Hep3B cells [10]): 37.56%
- Caspase-3 Conc. (active caspase-3): 407.3 ± 7.55 pg/mL
- IC50 [6]: 0.43 µM
- IC50 [6, 15]: 0.43 ± 0.01 µM

Compound: C[C@H]1COc2c(N3CCN(C)CC3)c(F)cc3c(=O)c(C(=O)O)cn1c23 [Levofloxacin, reference compound]
- IC50 [1]: 7.38 ± 0.31 µM
- Topo2β% inhibition [2]: 73.59%
- Topo2β% inhibition [7]: 70.40%
- IC50 at 48 h (in vitro [3]): 29.9 ± 1.52 µM
- IC50 at 48 h (in vitro [4]): 20.2 ± 0.85 µM
- IC50 at 48 h (in vitro [8]): 22.2 ± 1.41 µM
- IC50 [5]: 2.79 ± 0.16 µM
- Total % (Hep3B cells [9]): 34.62%
- percentage of apoptotic cells (summation of Q2 and Q3) (Hep3B cells [9]): 23.60%
- Early apoptosis % (Hep3B cells [9]): 0.95%
- Late apoptosis % (Hep3B cells [9]): 22.65%
- Necrosis % (Hep3B cells [9]): 11.02%
- DNA content %G0–G1 (Hep3B cells [10]): 29.66%
- DNA content %G2/M (Hep3B cells [10]): 39.87%
- DNA content %S (Hep3B cells [10]): 30.47%
- Topo2β% inhibition [11]: 59.80%
- Caspase-3 Conc. (active caspase-3): 391.7 ± 5.86 pg/mL
- IC50 [6]: 8.94 µM
- IC50 [6, 15]: 8.94 ± 0.29 µM
